Measured values reported in patent US5990276A, “Synthetic inhibitors of hepatitis C virus NS3 protease” (Schering Corporation, priority 1997, dated 1999).
pIC50: −log10 of the molar value. Square brackets hold non-standard residues; d marks the D form. Peptide text beside a SMILES is read from it. * marks the point of attachment. Biotin = O=C1N[C@H]2[C@H](CS[C@H]2CCCCC(=O)*)N1

target: T1, HCV NS3 protease (Hepatitis C virus genotype 1a, UniProt P27958); assay: HPLC assay of inhibition of HCV NS3 protease cleavage of the 5A/5B substrate; format: biochemical; conditions: Example 2; separate method not given; read-out: IC50, monovalent inhibitors of the HCV NS3 protease
T1 construct: HT (hydrophilic solubilizing tail) (C); made in house; host or cells: E. coli M15 [pREP4]
T1 sequence (P27958 1028-1209): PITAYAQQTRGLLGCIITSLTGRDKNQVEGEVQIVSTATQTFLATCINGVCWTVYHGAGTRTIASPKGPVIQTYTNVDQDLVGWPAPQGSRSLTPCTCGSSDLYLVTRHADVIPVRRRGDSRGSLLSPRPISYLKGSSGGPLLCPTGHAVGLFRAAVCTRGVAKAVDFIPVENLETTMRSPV
Description: Into an aqueous solution containing 25 mM TRIS, 50 mM NaCl, 0.5 mM EDTA, 10% glycerol and 0.1% NP40 was placed the potential inhibitor, the HCV NS3 protease at a concentration of 0.05 μM-[…], the HCV NS4A cofactor at a concentration of 0.05 μM-0.1 μM and the 5A/5B substrate at a concentration of 50 μM. This solution was then incubated for approximately 2 hours at 30° C. after which the solution was applied to an HPLC to determine if the 5A/5B remained intact and thus the compound was determined to be an inhibitor. […] The potential inhibitors were assayed at several different concentrations to determine the concentration which produced 50% inhibition of the HCV NS3 protease.

Question: With `CC[C@@H](C)[C@@H](NC(=O)[C@H](NC(=O)[C@@H](CC(C)C)NC(=O)[C@@H](CO)NC(C)=O)C(C)C)C(=O)N[C@H](CCCNC(=N)N)C(=O)NCC(=O)N[C@@H](C(=O)N[C@@H](C(=O)N[C@@H](C(N)=O)C(C)C)[C@H](C)CC)C(C)C` [SEQ ID NO.: 12, Ser-Leu-Val-Ile-Arg-Gly-Val-Ile-Val] as the compound, how does the pIC50 read?
Answer: 6.22

Question: `CC[C@@H](C)[C@@H](NC(=O)[C@H](NC(=O)[C@@H](CC(C)C)NC(=O)[C@@H](CO)NC(=O)CNC(=O)[C@@H](CCCCN)NC(C)=O)C(C)C)C(=O)N[C@H](CCCNC(=N)N)C(=O)NCC(=O)N[C@@H](C(=O)N[C@@H](C(=O)N[C@@H](C(=O)N[C@@H](C(=O)N[C@H](CS)C(N)=O)C(C)C)C(C)C)[C@H](C)CC)C(C)C` [SEQ ID NO.: 13, Lys-Gly-Ser-Leu-Val-Ile-Arg-Gly-Val-Ile-Val-Val-Cys] was tested. Which pIC50 did it give?
Answer: 5.70

Question: `CC[C@@H](C)[C@@H](NC(=O)[C@H](NC(=O)[C@@H](CC(C)C)NC(=O)[C@@H](CO)NC(=O)CNC(=O)[C@@H](CCCCN)NC(=O)CCCC[C@@H]1SC[C@@H]2NC(=O)N[C@@H]21)C(C)C)C(=O)N[C@H](CCCNC(=N)N)C(=O)NCC(=O)N[C@@H](C(=O)N[C@@H](C(=O)N[C@@H](C(=O)N[C@@H](C(=O)N[C@H](CS)C(=O)N[C@@H](CCCCN)C(=O)N[C@@H](CCCCN)C(=O)O)C(C)C)C(C)C)[C@H](C)CC)C(C)C` [SEQ ID NO.: 14, Xaa-Lys-Gly-Ser-Leu-Val-Ile-Arg-Gly-Val-Ile Val-Val-Cys-Lys-Lys] (Biotin-[dK]G[dS][dL][dV][dI][dR]G[dV][dI][dV][dV][dC]KK-OH) was tested. Which pIC50 did it give?
Answer: 6.40
